# Test results reported in publication PMC4912613, “A broad analysis of resistance development in the malaria parasite” (Nature Communications, 2016).
# Tested on: MMV008149-resistant clones (Dd2 parent; cytochrome bc1 G131S, Y126C, V284L)
# Assay: EC50 assay on MMV008149-resistant lines
# Assay type: cell-based
# Conditions: Plasmodium falciparum, six MMV008149-resistant clones
# Description: Genomic DNA (gDNA) was isolated from the Dd2 parent and six clones (two clones per resistant selection flask), and samples were prepared for whole-genome sequencing. Samples were sequenced to >60 × coverage using paired end reads and aligned to the 3D7 reference genome and variants were called with HaplotypeCaller (GATK). Comparing the nucleotide variation found in the resistant samples to the Dd2 parent clone, which had been isolated immediately before selections, we identified genomic changes that had presumably occurred during selection. Following this comparison, 19 mutations were identified: 11 SNVs and eight insertion/deletions (INDELs) (Table 2, Supplementary Data 2). INDEL mutations were comprised of intergenic (three), codon INDEL (three), intronic (one) and frame-shift (one) mutations. […] Comparing all six clones, one gene was mutated across all samples: cytochrome bc1. […]
# Alternatively, a SYBR Green-based proliferation approach was used for the 72-h assay, as previously described. […] Following incubation, 10 × SYBR Green I (Invitrogen; supplied in 10,000 × concentration) in lysis buffer ([…], 5 mM EDTA, 0.16% Saponin wt per vol and 1.6% Triton X vol per vol) was added to the wells and the plates were incubated overnight at room temperature before plate reading. […]
compound,measurement,value
Cc1c(C)n(Cc2ccc(F)cc2)c2ccc(C(=O)NCc3ccco3)cc12 [MMV008149],EC50,1.67 to 10.1 µM
